One data set deals with rats. Put plainly: acute toxicity in rats. As to conditions: 1000 mg/kg oral. Format: in vivo.
A further data set in a line: acute toxicity in rats. The format is in vivo. To be noted: rat, in vivo, oral.
Data set [1] concerns rat brain homogenate (ferrous ion dependent lipid peroxidation). Put plainly: ferrous ion dependent lipid peroxidation inhibitory activity on rat brain homogenate (thiobarbituric acid reactive substances). Format: biochemical. As to conditions: Fe2+ dependent lipid peroxidation, TBARS. How it is done:
1. The ferrous ion dependent lipid peroxidation inhibitory activity was measured on rat brain homogenate by using the method descibed by J. M. Braughler et al., [J. Biol. Chem. 262, 10438 (1987)] and J. A. Buege and S. D. […] The IC50 value is defined as the concentration of a test substance which reduces by 50% the amount of the thiobarbituric acid reactive substances (chiefly malondialdehyde) considered to be a characteristic parameter of lipid peroxidation.

The next data set has as its system acute brain injury. Put plainly: inhibition of acute brain injury of mice (improvement in the neurological state). The format is in vivo. To be noted: intravenous. An excerpt: 1. […] 68, 456 (1988)]. The doses of the test compounds administered by the intravenous route and the percentage of improvement in the neurological state are summarized in Table 4.
Data set [2] concerns ischemia induced weight increase of the small intestine. Put plainly: inhibition of ischemia induced weight increase of a definite section in the small intestine of rats. Format: in vivo. As to conditions: Rattus norvegicus, 25 mg/kg oral. As to the method: 2. […] The percentage of inhibition observed after administration of a 25 mg/kg oral dose of the compounds of the invention or of the reference compounds is shown in Table 5.

Data set [3] relates to NADPH dependent lipid peroxidation. Put plainly: inhibition of the NADPH dependent lipid peroxidation. The format is biochemical. As to the method:
3. Inhibiton of the NADPH dependent lipid peroxidation was measured according to T. J. Player and A. A. Horton [J. Neurochem. 37, 422 (1981)] and Z. Duniec [Biochem. Pharmacol. 32, 2283 (1983)]. The IC50 values (expressed in micromols) of some compounds of the invention, further those of the reference compounds determined in this test are given in Table 3.

Data set [4] has as its system arachidonic acid (ferrous ion dependent peroxidation). Put plainly: inhibition of the ferrous ion dependent peroxidation of arachidonic acid. Format: biochemical. As to conditions: Fe2+ dependent peroxidation of arachidonic acid. As to the method:
2. The inhibition of the ferrous ion dependent peroxidation of arachidonic acid was also measured by the method of J. M. Braughler et al. [J. Biol. Chem. 262, 10438 (1987)] and J. A. Buege and S. D. Aust [Methods in Enzymology 52, 302 (1978)]. The IC50 values (expressed in micromols) of some compounds of the invention, further those of the reference compounds determined in this test are shown in Table 2.

Molecules are shown by their SMILES.

As for `C=CCCCCCCCCC(=O)N1CCN(c2cc(N3CCCC3)nc(N3CCCC3)n2)CC1` [Example 1, 1-(10-Undecenoyl)-4-[2,6-di(1-pyrrolidinyl)-4-pyrimidinyl]piperazine], the “death of treated animals” value in the data set on rats was “did not provoke death of any of the treated animals”. In “acute toxicity in rats”, the LD50 (as a rule, the dose at which mortality reaches 50%) was more than 1000 mg/kg. The IC50 – broadly, the concentration that gives 50% inhibition – in data set [1] was 30 µM. Besides, in the data set on acute brain injury (10 mg/kg), the “Improvement (in the neurological state)” value was found to be 68%. Besides, testing at 25 mg/kg in data set [2] gave an inhibition in vivo of 55%.
On to `c1ccc(C(c2ccccc2)(c2ccccc2)N2CCN(c3cc(N4CCCC4)nc(N4CCCC4)n3)CC2)cc1` [Example 10], for which the “death of treated animals” value with rats is recorded as “did not provoke death of any of the treated animals”. Besides, the LD50 in “acute toxicity in rats” was more than 1000 mg/kg. Moreover, the inhibition in vivo (commonly how much of the control response was suppressed) at 25 mg/kg in data set [2] is 56%.
For the compound `OC(COc1ccc2ccccc2c1)CN1CCCN(c2cc(N3CCCC3)nc(N3CCCC3)n2)CC1` (stereo not drawn) [Example 27], the “death of treated animals” value in the data set with rats is “did not provoke death of any of the treated animals”. This compound also showed an LD50 in “acute toxicity in rats” of more than 1000 mg/kg. In addition, the IC50 in data set [1] was 8 µM; in data set [3] it was 22 µM. Also, the “Improvement (in the neurological state)” value with acute brain injury (20 mg/kg) turned out to be 82%. The same compound came in with an inhibition in vivo at 25 mg/kg in data set [2] of 60%.
On to `Nc1cc(N2CCN(CC(O)COc3ccc4c(c3)CCCC4=O)CC2)nc(N)n1` (stereo not drawn) [Example 28], for which the “death of treated animals” value in the data set on rats is recorded as “did not provoke death of any of the treated animals”. Besides, the LD50 in the data set “acute toxicity in rats” was more than 1000 mg/kg. For the same compound, the inhibition in vivo at 25 mg/kg in data set [2] stood at 64%.
For `Nc1cc(N2CCN(C(=O)COc3ccc4ccccc4c3)CC2)nc(N)n1` [Example 34] the same measures were “did not provoke death of any of the treated animals”, more than 1000 mg/kg and 69%.
`Nc1nc(N)c2nc(-c3ccc(OCC(O)CN4CCNCC4)cc3)c(N)nc2n1` (stereo not drawn) [Example 50, 6-[4-[2-Hydroxy-3-(1-piperazinyl)propoxy]phenyl]-2,4,7-triamino-pteridine] yielded an IC50 in data set [4] of 15 µM. In addition, the “death of treated animals” value in the data set with rats is given as “did not provoke death of any of the treated animals”. In addition, in “acute toxicity in rats”, the 50% lethal dose (LD50) was more than 1000 mg/kg. For the same compound, the “Improvement (in the neurological state)” value in the data set with acute brain injury (20 mg/kg) stood at 93%. For the same compound, 25 mg/kg produced 78% inhibition in vivo in data set [2].
In the case of `C[C@@H]1C[C@H]2[C@@H]3CCC4=CC(=O)C=C[C@]4(C)C3=CC[C@]2(C)[C@H]1C(=O)CN1CCN(c2cc(N3CCCC3)nc(N3CCCC3)n2)CC1` [Example U74006F, 21-[4-[2,6-di(1-pyrrolidinyl)-4-pyrimidinyl]-1-piperazinyl]-16α-methyl-pregna-1,4,9(11)-triene-3,20-dione, reference compound], the results for the IC50 in data set [4], in data set [1] and in data set [3] were more than 100 µM, 39 µM and more than 100 µM, respectively. The compound further came in with an LD50 in “acute toxicity in rats” of more than 1000 mg/kg. Besides, the “Improvement (in the neurological state)” value with acute brain injury (30 mg/kg) is on record as 77%. This compound also returned an inhibition in vivo at 25 mg/kg in data set [2] of 59%.
On to `Cc1c(C)c2c(c(C)c1O)CCC(C)(CN1CCN(c3cc(N4CCCC4)nc(N4CCCC4)n3)CC1)O2` (stereo not drawn) [Example U78517F, 2-[[4-[2,6-di(1-pyrrolidinyl)-4-pyrimidinyl]-1-piperazinyl]methyl]-6-hydroxy-2,5,7,8-tetramethyl-3,4-dihydro-2H-1-benzopyrane, reference compound], for which the IC50 is more than 50 µM in data set [4], 0.3 µM in data set [1] and 0.7 µM in data set [3]. Also, in the data set with acute brain injury (20 mg/kg), the “Improvement (in the neurological state)” value is 31%. The compound further yielded an inhibition in vivo at 25 mg/kg in data set [2] of 20%.

The values are drawn from patent US5380724A, “Piperazine and homopiperazine derivatives, pharmaceutical compositions containing them and process for preparing same” (Gyogyszerkutato Intezet KFT, priority 1992, dated 1995).
